Results: US12662479B2 (Foghorn Therapeutics Inc., priority 2020, dated 2026)

Columns and labels:
HiBit-BRM fusion protein = target: T1, HiBit-BRM fusion protein (Homo sapiens, UniProt P51531); experiment: HiBiT-BRM cell-based degradation assay (Nano-Glo HiBiT Lytic Detection, 24 h); settings: HeLa cells expressing HiBiT-BRM; for DC50: read-out: BRM HiBit Degradation IC50; for BRM HiBit Degradation Maximum measured: top dose 30 μM
T1 construct: expressed in transfected cells
Method in brief: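 Percent BRM loss was derived from HiBiT luminescence relative to DMSO-treated cells and cells given 2 μM of a known BRM/BRG1 degrader. Treatment lasted 24 h in HiBiT-BRM HeLa cells, with a top final concentration of 30 μM.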

[1] = target: T2, HiBit-BRG1 fusion protein (Homo sapiens, UniProt P51532); experiment: HiBiT-BRG1 cell-based degradation assay (Nano-Glo HiBiT Lytic Detection, 24 h); settings: HeLa cells expressing HiBit-BRG1 and LgBit; for DC50: read-out: BRG1 HiBit Degradation IC50; for Dmax: HeLa, top dose 30 μM, read-out: BRG1 HiBit Degradation Maximum measured
T2 construct: expressed in transfected cells
Method in brief: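 Degradation is scaled from DMSO-treated cells (0%) to cells given 2 μM of a known BRM/BRG1 degrader (100%). HeLa cells stably carrying HiBiT-BRG1 plus LgBiT (5000/well) were lysed with Nano-Glo HiBiT detection reagent, shaken 10 min at RT, and luminescence read.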

T2 sequence (P51532 whole entry, the tested form may be a part): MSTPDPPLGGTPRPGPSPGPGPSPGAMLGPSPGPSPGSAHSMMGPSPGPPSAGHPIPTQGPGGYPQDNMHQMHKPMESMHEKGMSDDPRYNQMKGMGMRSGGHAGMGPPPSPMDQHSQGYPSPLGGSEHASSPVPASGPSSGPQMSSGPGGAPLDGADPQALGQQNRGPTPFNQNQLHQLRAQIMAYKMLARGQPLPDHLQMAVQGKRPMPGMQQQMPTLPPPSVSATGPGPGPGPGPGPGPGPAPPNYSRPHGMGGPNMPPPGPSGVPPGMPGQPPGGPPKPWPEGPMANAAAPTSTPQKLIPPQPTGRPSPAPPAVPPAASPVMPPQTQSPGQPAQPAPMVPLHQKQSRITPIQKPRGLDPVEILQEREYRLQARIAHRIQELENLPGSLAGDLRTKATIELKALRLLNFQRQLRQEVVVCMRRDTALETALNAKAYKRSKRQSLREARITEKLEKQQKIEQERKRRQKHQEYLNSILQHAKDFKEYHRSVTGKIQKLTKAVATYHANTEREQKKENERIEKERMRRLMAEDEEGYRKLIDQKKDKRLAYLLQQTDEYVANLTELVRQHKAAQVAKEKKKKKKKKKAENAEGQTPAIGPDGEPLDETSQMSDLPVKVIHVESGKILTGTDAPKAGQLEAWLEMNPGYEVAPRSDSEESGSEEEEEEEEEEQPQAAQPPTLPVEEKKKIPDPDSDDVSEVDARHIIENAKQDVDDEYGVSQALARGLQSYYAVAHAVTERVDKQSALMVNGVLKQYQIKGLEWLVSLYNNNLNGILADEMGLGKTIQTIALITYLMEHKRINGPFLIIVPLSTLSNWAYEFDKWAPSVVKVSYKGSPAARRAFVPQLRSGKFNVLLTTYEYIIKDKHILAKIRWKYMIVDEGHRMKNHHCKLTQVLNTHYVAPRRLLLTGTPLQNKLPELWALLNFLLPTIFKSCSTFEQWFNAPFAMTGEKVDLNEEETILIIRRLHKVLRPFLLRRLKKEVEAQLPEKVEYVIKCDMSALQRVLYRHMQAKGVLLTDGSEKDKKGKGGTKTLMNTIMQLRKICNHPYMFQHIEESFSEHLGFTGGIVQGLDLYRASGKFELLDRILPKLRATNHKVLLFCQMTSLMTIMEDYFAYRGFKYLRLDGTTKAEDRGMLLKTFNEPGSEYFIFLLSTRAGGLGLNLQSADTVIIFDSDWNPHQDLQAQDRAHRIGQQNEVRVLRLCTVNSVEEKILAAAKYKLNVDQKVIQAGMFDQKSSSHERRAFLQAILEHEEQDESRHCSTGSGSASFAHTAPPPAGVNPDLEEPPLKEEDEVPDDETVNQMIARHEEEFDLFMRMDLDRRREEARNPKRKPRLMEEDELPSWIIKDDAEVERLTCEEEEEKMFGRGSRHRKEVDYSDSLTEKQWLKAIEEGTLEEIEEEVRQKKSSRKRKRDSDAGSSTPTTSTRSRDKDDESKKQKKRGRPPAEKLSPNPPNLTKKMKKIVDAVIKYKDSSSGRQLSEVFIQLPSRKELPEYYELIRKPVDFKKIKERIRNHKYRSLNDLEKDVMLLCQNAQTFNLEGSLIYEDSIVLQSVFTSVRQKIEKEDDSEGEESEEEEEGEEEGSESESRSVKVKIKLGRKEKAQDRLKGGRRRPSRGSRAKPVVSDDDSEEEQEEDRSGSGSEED
T1 sequence (P51531 whole entry, the tested form may be a part): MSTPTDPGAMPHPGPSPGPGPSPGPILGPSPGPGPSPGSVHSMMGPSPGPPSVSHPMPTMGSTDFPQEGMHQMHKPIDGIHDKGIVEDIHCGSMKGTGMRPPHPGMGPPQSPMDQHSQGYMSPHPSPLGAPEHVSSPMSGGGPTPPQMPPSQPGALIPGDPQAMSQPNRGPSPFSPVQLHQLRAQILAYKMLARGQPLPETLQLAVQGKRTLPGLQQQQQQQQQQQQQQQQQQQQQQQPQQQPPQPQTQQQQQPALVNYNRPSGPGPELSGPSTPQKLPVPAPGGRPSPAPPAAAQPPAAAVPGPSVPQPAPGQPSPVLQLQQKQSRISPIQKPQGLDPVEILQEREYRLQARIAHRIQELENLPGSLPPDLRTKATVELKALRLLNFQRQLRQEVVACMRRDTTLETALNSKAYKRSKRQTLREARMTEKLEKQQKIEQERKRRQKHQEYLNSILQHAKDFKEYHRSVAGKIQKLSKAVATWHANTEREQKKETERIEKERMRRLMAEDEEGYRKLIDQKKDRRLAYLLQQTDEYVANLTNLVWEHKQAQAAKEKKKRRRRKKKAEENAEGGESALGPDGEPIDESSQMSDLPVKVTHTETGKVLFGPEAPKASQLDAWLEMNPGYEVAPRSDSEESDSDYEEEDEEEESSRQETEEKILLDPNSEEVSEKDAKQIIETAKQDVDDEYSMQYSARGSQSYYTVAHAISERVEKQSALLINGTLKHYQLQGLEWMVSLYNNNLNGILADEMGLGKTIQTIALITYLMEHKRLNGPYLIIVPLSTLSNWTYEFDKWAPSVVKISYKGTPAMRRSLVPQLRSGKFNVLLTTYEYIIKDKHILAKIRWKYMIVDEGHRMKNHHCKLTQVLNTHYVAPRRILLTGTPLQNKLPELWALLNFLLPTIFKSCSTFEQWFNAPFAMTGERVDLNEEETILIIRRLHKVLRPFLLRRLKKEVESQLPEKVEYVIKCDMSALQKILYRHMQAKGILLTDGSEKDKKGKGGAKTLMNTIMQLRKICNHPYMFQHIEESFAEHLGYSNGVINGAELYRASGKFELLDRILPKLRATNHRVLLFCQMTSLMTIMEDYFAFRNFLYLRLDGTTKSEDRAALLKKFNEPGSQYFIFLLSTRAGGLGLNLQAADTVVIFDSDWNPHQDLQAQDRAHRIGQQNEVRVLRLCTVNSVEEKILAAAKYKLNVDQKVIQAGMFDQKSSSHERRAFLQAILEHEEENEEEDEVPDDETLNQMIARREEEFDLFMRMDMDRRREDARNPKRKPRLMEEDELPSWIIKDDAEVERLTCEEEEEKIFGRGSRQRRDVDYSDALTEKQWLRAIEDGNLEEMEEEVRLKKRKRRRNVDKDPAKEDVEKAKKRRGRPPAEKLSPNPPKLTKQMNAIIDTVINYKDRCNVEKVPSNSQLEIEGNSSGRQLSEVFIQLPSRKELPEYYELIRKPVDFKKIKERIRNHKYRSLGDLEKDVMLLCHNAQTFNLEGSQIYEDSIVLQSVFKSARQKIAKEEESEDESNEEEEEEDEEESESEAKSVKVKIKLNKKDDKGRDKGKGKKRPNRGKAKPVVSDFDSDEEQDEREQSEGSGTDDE

Structure (SMILES): CN(CCNC(=O)CCCOCC[C@H](NC(=O)c1ccn(S(C)(=O)=O)c1)C(=O)Nc1nc(-c2ccccc2)cs1)CCNc1cccc2c1C(=O)N(C1CCC(=O)NC1=O)C2=O (stereo partly drawn) [Compound 276, (2S)-4-[3-([2-[(2-[[2-(2,6-dioxopiperidin-3-yl)-1,3-dioxoisoindol-4-yl]amino]ethyl)(methyl)amino]ethyl]carbamoyl)propoxy]-2-[(1-methanesulfonylpyrrol-3-yl)formamido]-N-(4-phenyl-1,3-thiazol-2-yl)butanamide; formic acid]
- DC50 (HiBit-BRM fusion protein): > 10000 nM
- BRM HiBit Degradation Maximum measured (HiBit-BRM fusion protein): C (‘C’ = Maximum degradation <50%)
- DC50 [1]: > 10000 nM
- Dmax [1]: < 50%

Structure (SMILES): CS(=O)(=O)n1ccc(C(=O)N[C@@H](CCOCCCC(=O)NCCOc2cccc(OCCNc3ccc4c(c3)C(=O)N(C3CCC(=O)NC3=O)C4=O)c2)C(=O)Nc2nc(-c3ccccc3)cs2)c1 (stereo partly drawn) [Compound 285, (2S)-4-[3-([2-[3-(2-[[2-(2,6-dioxopiperidin-3-yl)-1,3-dioxoisoindol-5-yl]amino]ethoxy)phenoxy]ethyl]carbamoyl)propoxy]-2-[(1-methanesulfonylpyrrol-3-yl)formamido]-N-(4-phenyl-1,3-thiazol-2-yl)butanamide]
- DC50 (HiBit-BRM fusion protein): > 10000 nM
- BRM HiBit Degradation Maximum measured (HiBit-BRM fusion protein): C (‘C’ = Maximum degradation <50%)
- DC50 [1]: > 10000 nM
- Dmax [1]: < 50%

Structure (SMILES): Cc1ncsc1-c1ccc(CNC(=O)[C@@H]2C[C@@H](O)CN2C(=O)[C@@H](NCc2cccc(-c3cccc(-c4csc(NC(=O)CNC(=O)c5ccn(S(C)(=O)=O)c5)n4)c3)c2)C(C)(C)C)cc1 [Compound 164, (2S,4R)-4-hydroxy-1-[(2S)-2-([[3′-(2-[2-[(1-methanesulfonylpyrrol-3-yl)formamido]acetamido]-1,3-thiazol-4-yl)-[1,1′-biphenyl]-3-yl]methyl]amino)-3,3-dimethylbutanoyl]-N-[[4-(4-methyl-1,3-thiazol-5-yl)phenyl]methyl]pyrrolidine-2-carboxamide]
- DC50 (HiBit-BRM fusion protein): > 10000 nM
- BRM HiBit Degradation Maximum measured (HiBit-BRM fusion protein): C (‘C’ = Maximum degradation <50%)
- DC50 [1]: > 10000 nM
- Dmax [1]: < 50%

Structure (SMILES): CS(=O)(=O)n1ccc(C(=O)N[C@@H](COCc2ccc(CNC(=O)CCN3CC4(C3)CN(c3ccc5c(c3)C(=O)N(C3CCC(=O)NC3=O)C5=O)C4)cc2)C(=O)Nc2nc(-c3ccccc3)cs2)c1 (stereo partly drawn) [Compound 176, (2S)-3-([4-[(3-[6-[2-(2,6-dioxopiperidin-3-yl)-1,3-dioxoisoindol-5-yl]-2,6-diazaspiro[3.3]heptan-2-yl]propanamido)methyl]phenyl]methoxy)-2-[(1-methanesulfonylpyrrol-3-yl)formamido]-N-(4-phenyl-1,3-thiazol-2-yl)propanamide]
- DC50 (HiBit-BRM fusion protein): 100 to 1000 nM
- BRM HiBit Degradation Maximum measured (HiBit-BRM fusion protein): B (‘B’ = Maximum degradation ≥50% and ≤75%)
- DC50 [1]: 100 to 1000 nM
- Dmax [1]: 50 to 75%

Structure (SMILES): CS(=O)(=O)n1ccc(C(=O)NCC(=O)Nc2nc(-c3cccc(-c4ccnc(C5(C(=O)N6CCN(CCCOc7ccc8c(c7)C(=O)N(C7CCC(=O)NC7=O)C8=O)CC6)CC5)c4)c3)cs2)c1 (centres unmarked) [Compound 135, N-[4-[3-(2-[1-[4-(3-[[2-(2,6-dioxopiperidin-3-yl)-1,3-dioxoisoindol-5-yl]oxy]propyl)piperazine-1-carbonyl]cyclopropyl]pyridin-4-yl)phenyl]-1,3-thiazol-2-yl]-2-[(1-methanesulfonylpyrrol-3-yl)formamido]acetamide]
- DC50 (HiBit-BRM fusion protein): 100 to 1000 nM
- BRM HiBit Degradation Maximum measured (HiBit-BRM fusion protein): B (‘B’ = Maximum degradation ≥50% and ≤75%)
- DC50 [1]: 100 to 1000 nM
- Dmax [1]: > 75%

Structure (SMILES): CS(=O)(=O)n1ccc(C(=O)NCC(=O)Nc2nc(C3CCCN(C(=O)CCOCCOCCOc4ccc5c(c4)C(=O)N(C4CCC(=O)NC4=O)C5=O)C3)cs2)c1 (centres unmarked) [Compound 144, N-[4-(1-{3-[2-(2-{[2-(2,6-dioxopiperidin-3-yl)-1,3-dioxo-2,3-dihydro-1H-isoindol-5-yl]oxy}ethoxy)ethoxy]propanoyl}piperidin-3-yl)-1,3-thiazol-2-yl]-2-[(1-methanesulfonyl-1H-pyrrol-3-yl)formamido]acetamide]
- DC50 (HiBit-BRM fusion protein): > 10000 nM
- BRM HiBit Degradation Maximum measured (HiBit-BRM fusion protein): C (‘C’ = Maximum degradation <50%)
- DC50 [1]: > 10000 nM
- Dmax [1]: < 50%

Structure (SMILES): CS(=O)(=O)n1ccc(C(=O)N[C@@H](COCc2ccc(C(=O)NCCCCCCNc3ccc4c(c3)C(=O)N(C3CCC(=O)NC3=O)C4=O)cc2)C(=O)Nc2nc(-c3ccccc3)cs2)c1 (stereo partly drawn) [Compound 201, N-(6-[[2-(2,6-dioxopiperidin-3-yl)-1,3-dioxoisoindol-5-yl]amino]hexyl)-4-[[(2S)-2-[(1-methanesulfonylpyrrol-3-yl)formamido]-2-[(4-phenyl-1,3-thiazol-2-yl)carbamoyl]ethoxy]methyl]benzamide]
- DC50 (HiBit-BRM fusion protein): 100 to 1000 nM
- BRM HiBit Degradation Maximum measured (HiBit-BRM fusion protein): A (‘A’ = Maximum degradation >75%)
- DC50 [1]: < 100 nM
- Dmax [1]: > 75%

Structure (SMILES): CS(=O)(=O)n1ccc(C(=O)NCC(=O)Nc2nc(-c3cccc(-c4ccnc(OCCNC(=O)CCCCCCCCCCNc5cccc6c5C(=O)N(C5CCC(=O)NC5=O)C6=O)c4)c3)cs2)c1 (centres unmarked) [Compound 82, N-[2-[[4-[3-[2-[2-[11-[[2-(2,6-dioxo-3-piperidyl)-1,3-dioxo-isoindolin-4-yl]amino]undecanoylamino]ethoxy]-4-pyridyl]phenyl]thiazol-2-yl]amino]-2-oxo-ethyl]-1-methylsulfonylpyrrole-3-carboxamide]
- DC50 (HiBit-BRM fusion protein): > 10000 nM
- BRM HiBit Degradation Maximum measured (HiBit-BRM fusion protein): C (‘C’ = Maximum degradation <50%)
- DC50 [1]: > 10000 nM
- Dmax [1]: < 50%

Structure (SMILES): CS(=O)(=O)n1ccc(C(=O)NCC(=O)Nc2nc(-c3cccc(-c4ccnc(OCCNC(=O)CCOCCOCCOc5cccc6c5C(=O)N(C5CCC(=O)NC5=O)C6=O)c4)c3)cs2)c1 (centres unmarked) [Compound 68, N-[2-[[4-[3-[2-[2-[3-[2-[2-[2-(2,6-dioxo-3-piperidyl)-1,3-dioxoisoindolin-4-yl]oxyethoxy]ethoxy]propanoylamino]ethoxy]-4-pyridyl]phenyl]thiazol-2-yl]amino]-2-oxo-ethyl]-1-methylsulfonyl-pyrrole-3-carboxamide]
- DC50 (HiBit-BRM fusion protein): 100 to 1000 nM
- BRM HiBit Degradation Maximum measured (HiBit-BRM fusion protein): B (‘B’ = Maximum degradation ≥50% and ≤75%)
- DC50 [1]: 100 to 1000 nM
- Dmax [1]: 50 to 75%

Structure (SMILES): Cc1ncsc1-c1ccc(CNC(=O)[C@@H]2C[C@@H](O)CN2C(=O)[C@@H](NC(=O)CCCCCCC(=O)NCc2cccc(-c3cccc(-c4csc(NC(=O)CNC(=O)c5ccn(S(C)(=O)=O)c5)n4)c3)c2)C(C)(C)C)cc1 [Compound 50, N1-((S)-1-((2S,4R)-4-hydroxy-2-((4-(4-methylthiazol-5-yl)benzyl)carbamoyl)pyrrolidin-1-yl)-3,3-dimethyl-1-oxobutan-2-yl)-N8-((3′-(2-(2-(1-(methylsulfonyl)-1H-pyrrole-3-carboxamido)acetamido)thiazol-4-yl)-[1,1′-biphenyl]-3-yl)methyl)octanediamide]
- DC50 (HiBit-BRM fusion protein): 100 to 1000 nM
- BRM HiBit Degradation Maximum measured (HiBit-BRM fusion protein): A (‘A’ = Maximum degradation >75%)
- DC50 [1]: 100 to 1000 nM
- Dmax [1]: > 75%

Structure (SMILES): CS(=O)(=O)n1ccc(C(=O)NCC(=O)Nc2nc(-c3cccc(-c4cccc(CNC(=O)CCCOc5cccc6c5C(=O)N(C5CCC(=O)NC5=O)C6=O)c4)c3)cs2)c1 (centres unmarked) [Compound 30]
- DC50 (HiBit-BRM fusion protein): > 10000 nM
- BRM HiBit Degradation Maximum measured (HiBit-BRM fusion protein): C (‘C’ = Maximum degradation <50%)
- DC50 [1]: > 10000 nM
- Dmax [1]: < 50%
